Measurements from US20250275946A1, “COMBINATION THERAPY FOR THE TREATMENT OF CANCER” (UNM RAINFOREST INNOVATIONS, priority 2021, published 2025).
Read-outs that look alike come from different tables or passages of the source.

Legend:
[1] = cited from earlier work
[2] = tested on: patient-derived tumor colonoids; assay: RNA-seq analysis of patient-derived tumor colonoids treated with DFO; type: cell-based, human; conditions: DFO 100 μM in KGMG medium, 4 days
Method: The adenoma colonoids culture was described previously. See Xue, et al., Cell Metab, 2016; 24: pp. 447-461). The culture plates were placed in a 37° C. incubator for 30 min to solidify the Matrigel, followed by the addition of 1 mL serum-free Keratinocyte Growth Media Gold (KGMG, Catalogue: 00195769, Lonza, Basel, Switzerland). After 24 hours of plating, colonoids were treated with DFO (0 or 100 μM) in KGMG for 4 days with fresh media change every other day. At the end of the experiment, culture media was aspirated off, and colonoids were lysed with Trizol to extract RNA.
RNA sequencing libraries were prepared using the TruSeq RNA library prep kit v2 (Illumina) following the manufacturer's recommended protocol. The libraries were sequenced using single-end 50-cycle reads on a HiSeq 4000 sequencer (Illumina) at the University of Michigan DNA Sequencing Core Facility. Raw sequencing read quality was assessed utilizing FastQC. Reads were aligned to the reference human transcriptome (UCSC) using STAR 2.5.2a. Default parameters were used for the alignment, with the exception of “--outFilterMultimapNmax 10” and “--sjdbScore 2”. Expression quantification and differential expression analysis between DFO and control tumor colonoids were conducted using CuffDiff v 2.1.1 using default settings. […]

[3] = tested on: advanced hepatocellular carcinoma; conditions: cohort of 10 advanced hepatocellular carcinoma; cited from earlier work
[4] = mice; cited from earlier work
[5] = tested on: HCT116, SW480 or RKO cancer cells; assay: Immunoblotting analysis in human colon-derived cancer cells; type: cell-based
Method: (§1) Human HCT116, RKO, SW480, HEK293T and murine MC38 CRC cells were maintained at 37° C. in 5% CO2 and cultured in Dulbecco's modified Eagle medium (DMEM) supplemented with 10% fetal bovine serum (FBS) and 1% penicillin and streptomycin (VWR, Radnor, PA). HCT116 p53+/+ and p53−/− cells were a kind gift from Professor Bert Vogelstein at the Johns Hopkins University. For generating stable cell lines, MC38 cells were transfected with a mouse shTFRC plasmid (TRCN0000375695, Sigma, St. Louis, MO) or a mouse shPOLD1 plasmid (TRCN0000428858, Sigma), RKO cells were transfected with a human shPOLD1 plasmid (TRCN0000007924, Sigma) and selected with 1 μg/ml puromycin.
Cells and tumor tissues were lysed with radioimmunoprecipitation assay buffer. After incubation, cell extracts were centrifuged and the supernatant was collected for Bradford assay to quantify protein concentration by a BioTek Synergy HTX Multi-Mode Microplate Reader (BioTek, Winooski, VT). Equal amounts (20-50 μg) of protein were loaded for sodium dodecyl sulfate polyacrylamide gel electrophoresis (SDS-PAGE). The proteins inside the gels were transferred onto nitrocellulose membrane with a wet transfer method. The membranes were blocked with 3% milk for 1 hour. Primary antibodies were incubated overnight. Secondary antibodies were incubated for 1 hour. Antibodies for ferritin heavy chain (FTH1, #3998), IRP2 (#37135), active beta catenin (#8814), Anti-rabbit IgG HRP-linked Antibody (#7074) and Anti-mouse IgG HRP-linked Antibody (#7076) were from Cell signaling Technology (Danvers, MA). Primary antibodies for TFRC (sc-393719), HIF-1α, (sc-13515), HIF-2a (sc-13596), pS6 (sc-514033), pS6K (sc-8418), RRM2 (sc-398294), p-p53 (sc-377567), p53 (sc-6243), c-MYC (sc-40), GAPDH (sc-47724), Cyclin D1 (sc-718) and Actin (sc-8432) were from Santa Cruz Biotechnology (Dallas, TX). p-RPA2 (PA5-39809) was from Invitrogen (Carlsbad, CA). POLD1 (15646-1-AP), p-CHK1 (28805-1-AP), E2F1 (66515-1-Ig), Axin2 (20540-1-AP) and TNKS (18030-1-AP) were from Proteintech (Rosemont, IL).

MC38 cells [6] = assay: Ferro-Orange staining of cellular ferrous iron; type: cell-based, murine; conditions: FIG. S6D
Method: Cells (2×10^5 cells/well) were plated into 24 well plates. After seeding, pre-warmed DMEM containing 0.5 μM ferroOrange (dojindo, Rockville, MD), was incubated at 37° C. for 30 min. After incubation, the cell images were taken. Representative images were taken using the RFP channel of an Invitrogen™ EVOS™ FL Auto Imaging System (Thermo Fisher Scientific, Waltham, MA). Fluorescence intensity was quantified using a SpectraMax M2 Microplate Reader (Molecular Devices, Radnor, PA) at excitation 543 nm and emission 580 nm. The intensity was normalized with protein concentrations.

SW480 cells = assay: MTT assay in SW480 cells; type: cell-based, human; conditions: 48 hours
Method: as §1
(§2) Cells were plated at a concentration of 5×10^4 cells/mL in a 24 well plates. 125 μL 5 mg/mL MTT (Sigma, MO) was added to each plate and incubated for 30 min. Dimethyl sulfoxide (DMSO) was added and absorbance was measured at 570 nm using a BioTek Synergy HTX Multi-Mode Microplate Reader.

[7] = humans; cited from earlier work
B-family DNA polymerases = conditions: aphidicolin combined with CHK1 inhibitors; cited from earlier work
MC38 cells [8] = assay: Immunoblotting analysis in MC38 cells; type: cell-based, murine; conditions: MC38, 10 μM DFX and/or 10 μM 5-FU, 48 hours, FIG. 7Q
Method: as §1
Cells and tumor tissues were lysed with radioimmunoprecipitation assay buffer. After incubation, cell extracts were centrifuged and the supernatant was collected for Bradford assay to quantify protein concentration by a BioTek Synergy HTX Multi-Mode Microplate Reader (BioTek, Winooski, VT). Equal amounts (20-50 μg) of protein were loaded for sodium dodecyl sulfate polyacrylamide gel electrophoresis (SDS-PAGE). The proteins inside the gels were transferred onto nitrocellulose membrane with a wet transfer method. The membranes were blocked with 3% milk for 1 hour. Primary antibodies were incubated overnight. Secondary antibodies were incubated for 1 hour. […]

[9] = tested on: xenografts from MC38 cells; assay: Subcutaneous MC38 xenograft combination therapy in C57BL/6 mice; type: in vivo; conditions: 20 mg/kg DFX every other day, 1 mg/kg 5-FU daily, or combination, FIG. 7R
Method: For subcutaneous xenograft study, 1×10^6 syngeneic MC38 cells with Tfrc or Pold1 knockdown were injected into the flanks of C57BL/6 mice. Two weeks later, mice were sacrificed and tumors were collected. For combination therapy, when tumors are palpable at one week after subcutaneous injection of MC38 cells, C57BL/6 mice were treated with vehicle, 20 mg/kg DFX for every other day, 1 mg/kg 5-fluorouracil (5-FU) daily, or the combination of DFX and 5-FU.

MC38 cells [10] = assay: MTT assay in MC38 cells; type: cell-based, murine; conditions: MC38, 10 μM DFX and/or 10 μM 5-FU, 48 hours, FIG. 7P
Method: as §1, §2

cancer cells = conditions: cited from earlier work

CC(=O)N(O)CCCCCNC(=O)CCC(=O)N(O)CCCCCNC(=O)CCC(=O)N(O)CCCCCN [DFO, deferoxamine]
circulation half-life ([1]; humans): approximately 20 min
circulation half-life ([1]; in vivo): extremely short
decrease of POLD1 gene expression (RNA-seq) [2]: 4.31 fold
decrease of RRM2 gene expression (RNA-seq) [2]: 3.28 fold
severe adverse events [3]: without severe adverse events
circulation half-life [4]: ~5 min

ferrous sulfate [FS]
rescue of DFO-decreased POLD1 ([5]; HCT116 cells, 100 μM DFO and different doses of FS, FIG. 5E): can rescue
orange fluorescence signal (cellular ferrous iron) (MC38 cells [6]): greatly increased

Oc1nc(-c2ccc(C(F)(F)F)cc2)nc2c1CSCC2 [XAV939]
suppressive effect of DFO on c-Myc, E2F1, POLD1 and Cyclin D1 ([5]; SW480 cells, DFO and/or XAV939, FIG. 5N): potentiated
expression of TNKS and Axin2 ([5]; SW480 cells, FIG. 5N): increased
iron-repressed Axin2 ([5]; SW480 cells, FS and/or XAV939, FIG. 5O): rescued
c-Myc, E2F1, POLD1 and Cyclin D1 protein ([5]; SW480 cells, even with iron supplementation, FIG. 5O): suppressed

COc1cccc(OCCCN)c1-c1cc(Nc2cnc(C#N)cn2)n[nH]1 [Prexasertib]
synergistic effect on cell growth (MTT) (SW480 cells; SW480, 10 μM DFO and/or 100 nM Prexasertib, FIG. S7F): synergistic effect was further validated

CCc1ccc(/C=C2/SC(=S)NC2=O)cc1 [10058-F4]
E2F1 and POLD1 protein ([5]; SW480 cells, c-Myc inhibitor overnight, FIG. S5G): reduced

C[C@@]1(CO)[C@H](O)CC[C@@]2(C)[C@H]1CC[C@H]1C[C@@H]3C[C@@]12CC[C@]3(O)CO [aphidicolin]
toxicity [7]: too toxic to be used in humans
cancer cell proliferation (B-family DNA polymerases): synergistic inhibition

CNCc1ccc(-c2cc(-c3nc(-c4ccc(S(=O)(=O)C(C)C)cc4)cnc3N)on2)cc1 [VE-822]
synergistic effect on cell growth (MTT) (SW480 cells; SW480 and MC38 cells, 10 μM DFX, 10 uM VE-822 or 100 nM Prexasertib, FIG. S7G, S7H): synergistic effect was further validated

O=c1[nH]cc(F)c(=O)[nH]1 [5-FU, 5-fluorouracil]
DDR of DFX (immunoblotting) (MC38 cells [8]): potentiated
growth suppressive effect of DFX in vivo (tumor weight) [9]: potentiated
growth suppressive effect of DFX in vitro (MTT) (MC38 cells [10]): potentiated

c1ccc(CNC2CC(NCc3ccccn3)CC(NCc3ccccn3)C2)nc1 (stereo not drawn) [tachpyridine, N,N′,N″-tris(2-pyridylmethyl)-cis,cis-1,3,5-triaminocyclohexane]
sensitivity to ionizing radiation induced DNA damage (cancer cells; cancer cells (not noncancer cells)): sensitizes cancer cells
cell cycle (cancer cells; via ATR-dependent activation of CHK1): induces G2 cell cycle arrest
